Data: the supplement of paper PMC10307832

How the values were obtained:
Test in all cases: relative viability (nuclei count vs DMSO), 5 days (fraction); higher = more cells survive
BGJ398 + Dasatinib = compound: CCN1CCN(c2ccc(Nc3cc(N(C)C(=O)Nc4c(Cl)c(OC)cc(OC)c4Cl)ncn3)cc2)CC1 [BGJ398] + Cc1nc(Nc2ncc(C(=O)Nc3c(C)cccc3Cl)s2)cc(N2CCN(CCO)CC2)n1 [Dasatinib] (partner 0.075 µM)
Method in brief: (§1)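 Lung cancer cell lines were pin-tool dosed in 1536-well plates on the day after seeding, with either a lone drug or a fixed anchor-drug dose plus five library-drug doses (not always all listed) in √10 steps. Nuclei were counted on 4× images after 5 days. Relative viability is the ratio of treated-well to vehicle-well nuclei counts, with each value a median of duplicate plates.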

BGJ398 + Luminespib = compound: CCN1CCN(c2ccc(Nc3cc(N(C)C(=O)Nc4c(Cl)c(OC)cc(OC)c4Cl)ncn3)cc2)CC1 [BGJ398] + CCNC(=O)c1noc(-c2cc(C(C)C)c(O)cc2O)c1-c1ccc(CN2CCOCC2)cc1 [Luminespib] (partner 0.01 µM)
Method in brief: as §1

[1] = compound: C1=CC2=NC=CN=C2C=C1/C=C/3\C(=O)NC(=O)S3 + CC(C)C[C@H](NC(=O)[C@H](Cc1ccccc1)NC(=O)c1cnccn1)B(O)O [Bortezomib] (partner 0.002 µM)
Method in brief: as §1

[2] = compound: C1=CC2=NC=CN=C2C=C1/C=C/3\C(=O)NC(=O)S3 + Nc1ncn([C@H]2C[C@H](O)[C@@H](CO)O2)c(=O)n1 [Decitabine] (partner 2 µM)
Method in brief: as §1

Cell Line | relative viability (BGJ398 + Dasatinib; first compound 0.01 µM) | relative viability (BGJ398 + Dasatinib; first compound 0.03162 µM) | relative viability (BGJ398 + Dasatinib; first compound 0.1 µM) | relative viability (BGJ398 + Dasatinib; first compound 0.3162 µM) | relative viability (BGJ398 + Dasatinib; first compound 1 µM) | relative viability (BGJ398 + Luminespib; first compound 0.01 µM) | relative viability (BGJ398 + Luminespib; first compound 0.03162 µM) | relative viability (BGJ398 + Luminespib; first compound 0.1 µM) | relative viability (BGJ398 + Luminespib; first compound 0.3162 µM) | relative viability (BGJ398 + Luminespib; first compound 1 µM) | relative viability ([1]; first compound 0.02 µM) | relative viability ([1]; first compound 0.06325 µM) | relative viability ([1]; first compound 0.2 µM) | relative viability ([1]; first compound 0.6325 µM) | relative viability ([1]; first compound 2 µM) | relative viability ([2]; first compound 0.02 µM) | relative viability ([2]; first compound 0.06325 µM) | relative viability ([2]; first compound 0.2 µM) | relative viability ([2]; first compound 0.6325 µM) | relative viability ([2]; first compound 2 µM)
NCI-H3122 | 0.761 | 0.833 | 0.923 | 0.785 | 0.991 | 0.0895 | 0.0973 | 0.0991 | 0.0908 | 0.0986 | 1.02 | 1.01 | 1 | 1.08 | 0.975 | 0.434 | 0.431 | 0.468 | 0.459 | 0.403
PC-3 [JPC-3] | 0.949 |  | 1.02 | 0.854 | 1.01 | 0.63 |  | 0.737 | 0.721 | 0.712 | 0.735 | 0.853 | 0.879 | 0.851 | 0.852 | 0.785 | 0.911 | 0.822 | 0.801 | 0.868
PC-14 | 0.294 | 0.0382 | 0.234 | 0.141 | 0.317 | 0.151 |  | 0.119 |  | 0.134 | 0.726 | 0.816 | 0.81 | 0.882 | 0.81 | 0.242 | 0.272 | 0.237 | 0.204 | 0.275
RERF-LC-KJ | 0.655 | 0.933 | 0.753 | 0.858 | 0.819 | 1.23 | 1.25 | 1.32 | 1.26 | 1.31 | 1.25 | 1.17 | 1.23 | 1.14 | 1.11 | 0.596 | 0.726 | 0.681 | 0.632 | 0.628
SK-LU-1 | 0.173 | 0.19 | 0.142 | 0.153 | 0.13 | 0.215 | 0.193 | 0.189 | 0.188 | 0.197 | 1.37 | 1.32 | 1.44 | 1.29 | 0.783 | 0.597 | 0.712 | 0.74 | 0.639 | 0.596
SW 1573 | 0.439 | 0.668 | 0.466 | 0.462 | 0.574 | 0.323 | 0.242 | 0.209 | 0.226 | 0.278 | 0.996 | 1.21 | 1.17 | 0.835 | 0.95 | 0.506 | 0.65 | 0.603 | 0.544 | 0.367
